In data set [1] the test system is HeLa MKYP cells. Briefly: Human mitophagy assay (HeLa MKYP, mtKeima FACS, FCCP/oligomycin). The format is cell-based. How it is done: Briefly, HeLa MKYP cells were plated at 10,000 cells/well in 96 well plates along with compounds at various concentrations. Following 16 hrs of incubation, cells were treated with 1 uM FCCP/oligomycin for 6 hours, then analyzed via FACS for the presence of mitochondria in lysosomes (as determined by an emissions spectrum shift from the pH-sensitive mtKeima tag). Examples are shown in FIG. 1 through FIG. 13 below.

Data set [2] concerns HeLa MKYP cells. The data set is described as follows: Toxicity / cell death measured by DAPI staining (take-up). In kind it is cell-based. As to conditions: 50 μM; for Toxicity (% positive for DAPI takeup @ 50 μM): Table 3; for Toxicity (% positive for DAPI take-up at 50 μM)*: Table 3 Supplement A. How it is done:
H2O2 treatment was performed as a control for cell death as measured by DAPI staining.
Briefly, HeLa MKYP cells were plated at 10,000 cells/well in 96 well plates along with compounds at various concentrations. Following 16 hrs of incubation, cells were treated with 1 uM FCCP/oligomycin for 6 hours, then analyzed via FACS for the presence of mitochondria in lysosomes (as determined by an emissions spectrum shift from the pH-sensitive mtKeima tag).

The mark [3] stands for this setting: Homo sapiens, HeLa, Table 3, read-out: Potency at 1 μM F/O toxin* (EC50 of mitophagy activation).
[4] abbreviates: Homo sapiens, HeLa, Table 3 Supplement A, as measured in Table 3, read-out: Potency (EC50 Max Mitophagy) (μM)*.

Read-outs that look alike come from different tables or passages of the source.

15 compounds from US20220162215A1, “COMPOSITIONS AND METHODS OF USING THE SAME FOR TREATMENT OF NEURODEGENERATIVE AND MITOCHONDRIAL DISEASE” (MITOKININ, INC., priority 2019, published 2022) can be followed below.

As for `c1ccc2c(c1)CC[C@H]2Nc1ncnc2[nH]cnc12` [Compound 55], the EC50 is greater than 50 µM in the data set with HeLa MKYP cells [1] (setting [3]) and greater than 25 µM with HeLa MKYP cells [1] (setting [4]). The “Toxicity (% positive for DAPI takeup @ 50 μM)” value in the data set with HeLa MKYP cells [2] was 10.3%. Also, the “Toxicity (% positive for DAPI take-up at 50 μM)*” value with HeLa MKYP cells [2] is 10.31%.
For the compound `COc1ccccc1CNc1ncnc2nc[nH]c12` [Compound 56], the EC50 in the data set on HeLa MKYP cells [1] (setting [3]) and in the data set with HeLa MKYP cells [1] (setting [4]) was 10.8 µM each time. In addition, in the data set with HeLa MKYP cells [2], the “Toxicity (% positive for DAPI takeup @ 50 μM)” value worked out at 12.4%. For the same compound, in the data set with HeLa MKYP cells [2], the “Toxicity (% positive for DAPI take-up at 50 μM)*” value is given as 12.42%.
On to `Clc1cccc(CNc2ncnc3nc[nH]c23)c1` [Compound 58], for which the EC50 in the data set with HeLa MKYP cells [1] (setting [3]) amounted to 16 µM. The EC50 in the data set with HeLa MKYP cells [1] (setting [4]) came to 16 µM. Besides, in the data set with HeLa MKYP cells [2], the “Toxicity (% positive for DAPI takeup @ 50 μM)” value worked out at 12.5% and the “Toxicity (% positive for DAPI take-up at 50 μM)*” value was 12.54%.
As to `c1ccc2c(c1)OCC[C@@H]2Nc1ncnc2[nH]cnc12` [Compound 59], the EC50 in the data set with HeLa MKYP cells [1] (setting [3]) was determined as 1.8 µM; in the data set on HeLa MKYP cells [1] (setting [4]), 1.69 µM. Besides, the “Toxicity (% positive for DAPI takeup @ 50 μM)” value in the data set on HeLa MKYP cells [2] was 17.0%. The “Toxicity (% positive for DAPI take-up at 50 μM)*” value in the data set with HeLa MKYP cells [2] came to 19.76%.
The corresponding values for `c1ccc(CCNc2ncnc3[nH]cnc23)cc1` [Compound 60] are 2.8 µM, 2.26 µM, 19.7% and 23.09%.
Regarding `OC[C@@H](Nc1ncnc2[nH]cnc12)c1ccccc1` [Compound 61], the EC50 in the data set on HeLa MKYP cells [1] (setting [3]) is greater than 50 µM; with HeLa MKYP cells [1] (setting [4]), greater than 25 µM. In addition, the “Toxicity (% positive for DAPI takeup @ 50 μM)” value in the data set with HeLa MKYP cells [2] was 8.9%. The “Toxicity (% positive for DAPI take-up at 50 μM)*” value in the data set on HeLa MKYP cells [2] is recorded as 8.9%.
For the compound `c1ccc2c(c1)OCC[C@H]2Nc1ncnc2[nH]cnc12` [Compound 62], the EC50 with HeLa MKYP cells [1] (setting [3]) was greater than 50 µM; in the data set with HeLa MKYP cells [1] (setting [4]), greater than 25 µM. Besides, the “Toxicity (% positive for DAPI takeup @ 50 μM)” value with HeLa MKYP cells [2] is on record as 16.0%. In addition, the “Toxicity (% positive for DAPI take-up at 50 μM)*” value in the data set with HeLa MKYP cells [2] was determined as 15.96%.
As to `C[C@@H](Nc1ncnc2[nH]cnc12)c1ccccc1` [Compound 63], the EC50 with HeLa MKYP cells [1] (Table 3, read-out: Potency at 1 μM F/O toxin* (EC50 of mitophagy activation)) was 47.4 µM; with HeLa MKYP cells [1] (Table 3 Supplement A, as measured in Table 3, read-out: Potency (EC50 Max Mitophagy) (μM)*), greater than 25 µM. Also, the “Toxicity (% positive for DAPI takeup @ 50 μM)” value with HeLa MKYP cells [2] is reported as 11.5%. Besides, in the data set on HeLa MKYP cells [2] (listed as EP-0036422), the “Toxicity (% positive for DAPI take-up at 50 μM)*” value was determined as 11.51%.
For the compound `C[C@@H](Nc1nccc2[nH]cnc12)c1ccccc1` [Compound 64], the EC50 is greater than 50 µM in the data set on HeLa MKYP cells [1] (setting [3]) and greater than 25 µM in the data set with HeLa MKYP cells [1] (setting [4]). In addition, the “Toxicity (% positive for DAPI takeup @ 50 μM)” value with HeLa MKYP cells [2] was 7.6%. The “Toxicity (% positive for DAPI take-up at 50 μM)*” value with HeLa MKYP cells [2] worked out at 7.63%.
As to `CC(CNc1ncnc2[nH]cnc12)c1ccccc1` (stereo not drawn) [Compound 65], the EC50 with HeLa MKYP cells [1] (setting [3]) turned out to be 3.6 µM. In addition, the EC50 in the data set with HeLa MKYP cells [1] (setting [4]) was determined as 3.61 µM. In the data set with HeLa MKYP cells [2], the “Toxicity (% positive for DAPI takeup @ 50 μM)” value came to 28.9% and the “Toxicity (% positive for DAPI take-up at 50 μM)*” value is given as 28.92%.
On to `c1ccc(C2(Nc3ncnc4[nH]cnc34)CC2)cc1` [Compound 72], for which the figures for the EC50 in the data set on HeLa MKYP cells [1] (setting [3]) and in the data set with HeLa MKYP cells [1] (setting [4]) were greater than 50 µM and greater than 25 µM, respectively. The “Toxicity (% positive for DAPI takeup @ 50 μM)” value in the data set with HeLa MKYP cells [2] is listed as 13.4%. Besides, the “Toxicity (% positive for DAPI take-up at 50 μM)*” value with HeLa MKYP cells [2] is 13.38%.
With `Cc1nc2c(N[C@H](C)c3ccccc3)ncnc2[nH]1` [Compound 73], the figures for the EC50 in the data set with HeLa MKYP cells [1] (setting [3]) and in the data set on HeLa MKYP cells [1] (setting [4]) were greater than 50 µM and greater than 25 µM, respectively. Moreover, the “Toxicity (% positive for DAPI takeup @ 50 μM)” value with HeLa MKYP cells [2] is 9.7%. The “Toxicity (% positive for DAPI take-up at 50 μM)*” value in the data set with HeLa MKYP cells [2] came to 9.69%.
For `Cc1nc2c(N[C@@H](C)c3ccccc3)ncnc2[nH]1` [Compound 74] the same measures were 4.6 µM, 4.65 µM, 31.9% and 31.93%.
The corresponding values for `OC[C@H](Nc1ncnc2[nH]cnc12)c1ccccc1` [Compound 75] are 3.5 µM, 3.48 µM, 14.5% and 14.49%.
`OC[C@H](Nc1ncnc2[nH]c(C(F)(F)F)cc12)c1ccccc1` [Compound 76]: the EC50 in the data set with HeLa MKYP cells [1] (setting [3]) was determined as 14.7 µM. In addition, in the data set with HeLa MKYP cells [1] (setting [4]), the EC50 worked out at 14.7 µM. In addition, in the data set on HeLa MKYP cells [2], the “Toxicity (% positive for DAPI takeup @ 50 μM)” value worked out at 30.4% and the “Toxicity (% positive for DAPI take-up at 50 μM)*” value is on record as 30.45%.
